# Assay results from patent publication US11779602B2, “Methods of use for CAR T cells” (ENDOCYTE, INC., priority 2018, dated 2023).
# What was measured:
# MDA-MB-231 tumors = assay: EC17/E2-CAR T-cell therapy in NSG mice with and without MDA-MB-231 tumors; assay type: in vivo
# Description: MDA-MB-231 tumor cells were grown in folate-deficient RPMI 1640 with 5-10% FBS at 37° C. in a 5% CO2 humidified atmosphere. MDA-MB-231 tumor cells were inoculated subcutaneously at 2.5×10^6 cells per animal. Only […] mice were inoculated and the remaining 22 mice were kept tumor-free.
# EGFRt-sorted anti-FITC E2 scFv-CAR T cells were frozen in a T-cell freezing medium. Vials of frozen CAR-T cells were immediately stored at −80° C. The CAR-T cells were quickly thawed at 37° C., washed twice with PBS, and used for animal injection at 10 million viable EGFRt+ E2 CAR-T cells (CD4/CD8 at ˜1:1) per animal. A small aliquot was taken on the day infusion for flow cytometric analysis of E2-CAR T-cell phenotypes.
# Mouse blood samples were processed for plasma and stored at −20° C. until use. A human TH1 cytokine panel (Biolegend, Cat. No. 740009) and a human hematopoietic stem cell cytokine panel (Biolegend, Cat. No. 740610) was used to detect human cytokines in the mouse blood. A mouse 13-plex inflammatory cytokine panel (Biolengend, No. 740150) was used to detect mouse cytokines. All analyses were performed per the manufacturer's instructions.
# Whole blood cell analysis: Plasma was removed from predetermined volumes of whole EDTA treated blood and RBCs were lysed with RBC lysis solution. […] Determination of the concentration of CAR T cells in each blood sample was calculated according to Invitrogen's instructions. CAR T cells were identified as human CD3ε+ EGFRt+ events and easily distinguished and counted using the Kaluza™ flow cytometry software. The number of CAR T cells in the circulation of each infused mouse was then represented on the graphs as the total number of CAR T cells per 100 μL of whole blood analyzed. Statistical significance was determined by utilizing an unpaired, two-tailed, students t-test with significance set at p<0.05. […]
# FR-negative HOS-143b = assay: Co-culture at 10 nM EC17, varying E/T ratios: specific lysis; assay type: cell-based, human; settings: 10 nM EC17, 48 hours
# Description: After 24 hours of co-culture, supernatants were harvested to determine tumor cell killing. To study the kinetics of T cell activation and FR correlation in vitro (FIGS. 60A-L), co-cultures were carried out in FR+/− cell lines at varying E/T ratios (1:27, 1:9, 1:3, 1:1, 3:1) in the continuous presence of 10 nM EC17. The kinetics of tumor cell killing were quantified after 16 and 48 hours of co-culture. Meanwhile, a portion of the supernatants was taken after 44 hours of co-culture for measurement of IFNγ, IL-2 and TNFα. Using Promega's CytoTox 96® LDH assay kit, target cell killing was quantified and expressed as specific lysis (%) which was normalized to basal levels in the absence of EC17 at defined E/T ratios. The LEGENDplex™ human Th1 cytokine panel (BioLegend, San Diego, Calif.) was used to determine CAR-T cell derived cytokines.
# Specific lysis (%) was quantified after 16 and 48 hours of co-culture, and Th1 cytokines (IFNγ, IL-2, TNFα) in culture media were measured after 44 hours of co-culture. […] It generally took a longer time (48 hours) and a higher E/T ratio (≥1:1) to see significant activity in the lowest FR-expressing OV90 cells (FIGS. 60A-G). The high FR-expressing KB cells responded […] to cause significant cell death (FIG. 60F).
smiles,measurement,setting,value
"NC1=NC2N=CC(CNc3ccc(C(=O)N[C@@H](CCC(=O)NCCNC(=S)Nc4ccc(-c5c6ccc(=O)cc-6oc6cc(O)ccc56)c(C(=O)O)c4)C(=O)O)cc3)=NC2C(=O)N1 (some centres unmarked) [EC17, FA-(γ)-ethylenediamine-FITC]","IFN-γ production, tumor-bearing vs tumor-free mice","MDA-MB-231 tumors; 10 million E2 CAR-T cells, EC17 500 nmol/kg days 2 and 10, plasma 20 hours after second dose",23 fold
same,increase in circulating E2 CAR T cells per 100 uL whole blood vs cohorts without EC17,MDA-MB-231 tumors; cohorts which received EC17 stimulation,more than 10 fold
same,CAR-T cell expansion by FACS in tumor-free mice,MDA-MB-231 tumors; post EC17 SIW500×2 doses,no detectable CAR-T cell expansion
same,"cytokine production (IL2, IFN-γ, IL-10) in tumor-bearing mice",MDA-MB-231 tumors; with vs without EC17 dose,EC17-dependent
same,specific lysis response,FR-negative HOS-143b,essentially unharmed
